Test results reported in patent US20250099420A1, “SMALL MOLECULE MODULATORS OF GPR139 COMPLEX” (University of Florida Research Foundation, Incorporated, priority 2022, published 2025).
Like-named read-outs stand apart in the source and are kept apart here.

Legend:
parental HEK cells = assay: HEK parental Agonist Counterscreen Assay (non-transfected cells); type: cell-based; conditions: for Averaged Max % Response (±St. Dev.): activity relative to known control
From the text: The high control for the agonist counterscreen was Forskolin not acetylcholine.

GPR139 = target: T1, GPR139 (Homo sapiens, UniProt Q6DWJ6); assay: GPR139 Agonist titration / agonist counterscreen assay (calcium detection, HEK-GPR139 cells); type: cell-based; set-up: expressed in transfected cells; host or cells: HEK Aequorin cells, Maxcyte transient transfection; conditions: GPR139 Agonist Activity; for Averaged Max % Response (±St. Dev.): activity relative to known control; for EC50: read-out: EC50
T1 sequence (Q6DWJ6 1-353): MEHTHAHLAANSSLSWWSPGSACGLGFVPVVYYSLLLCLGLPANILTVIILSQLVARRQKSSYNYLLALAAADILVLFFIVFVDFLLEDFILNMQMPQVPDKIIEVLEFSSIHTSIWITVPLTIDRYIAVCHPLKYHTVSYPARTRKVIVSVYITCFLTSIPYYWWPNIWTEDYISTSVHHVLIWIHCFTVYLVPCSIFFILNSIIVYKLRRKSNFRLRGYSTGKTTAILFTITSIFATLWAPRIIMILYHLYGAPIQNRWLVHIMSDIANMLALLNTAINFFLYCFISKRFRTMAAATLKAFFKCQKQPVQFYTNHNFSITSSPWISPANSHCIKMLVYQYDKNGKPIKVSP
Protocol: GPR activity was assessed using a calcium detection assay. […] Negative control samples were treated with DMSO. […] Intracellular calcium was measured using Calcium 5.

[1] = Homo sapiens, HEK293, HEK Agonist Activity section of Table 4 (parental HEK counterscreen)
[2] = values printed in E-notation without unit
[3] = Homo sapiens, HEK293, HEK Agonist Activity, parental non-transfected HEK cells
[4] = HEK Agonist Activity section of Table 4 (parental HEK counterscreen)

| SMILES | Lipophilic Efficiency (logD) (parental HEK cells; HEK Agonist Activity section) | Lipophilic Efficiency (logP) (parental HEK cells; HEK Agonist Activity section) | Averaged Max % Response (±St. Dev.) (parental HEK cells; HEK Agonist Activity section) [%] | EC50 (parental HEK cells; [1]) [nM] | Averaged Max % Response (±St. Dev.) (GPR139) [%] | Lipophilic Efficiency (logD) (GPR139; based on logD) | Lipophilic Efficiency (logP) (GPR139; based on logP) | Hill Slope (GPR139; fitted dose-response curve) | Efficiency Ligand (GPR139; ligand efficiency) | EC50 (GPR139; [2]) [nM] | Lipophilic Efficiency (logD) (parental HEK cells; HEK Agonist Activity) | Lipophilic Efficiency (logP) (parental HEK cells; HEK Agonist Activity) | Averaged Max % Response (±St. Dev.) (parental HEK cells; HEK Agonist Activity) [%] | EC50 (parental HEK cells; [4]) [nM] | also measured |
| --- | --- | --- | --- | --- | --- | --- | --- | --- | --- | --- | --- | --- | --- | --- | --- |
| O=C(CCc1nc2cccnc2n1Cc1cccs1)NCCc1cccs1 [SR-01000077903] | 1.29 | 1.29 | 1.27 ± 2.74 | > 14100 | 105.59 ± 5.95 | 3.66 | 3.66 | 0.45 | 0.37 | 60.2 |  |  |  |  |  |
| O=C(CCc1nc2cccnc2n1Cc1cccs1)NCCc1ccccc1 [SR-01000077904] |  |  |  |  | 79.43 ± 7.55 | 4.54 | 4.54 |  | 0.41 |  | 1.20 | 1.20 | −12.58 ± 9.87 |  | EC50 (parental HEK cells; [3]): > 14100 nM |
| CCCn1c(CCC(=O)NCCc2ccc(OCC)cc2)nc2cccnc21 [SR-01000077930] |  |  |  |  | 102.55 ± 5.37 | 4.55 | 4.55 | 0.67 | 0.38 | 22.8 | 1.76 | 1.76 | 1.00 ± 2.79 |  | EC50 (parental HEK cells; [3]): > 14100 nM |
| Cc1cc(CC(=O)N/C=C/c2cccc3ccccc23)n[nH]1 [SR-01000080408] | 4.10 | 2.51 | 71.97 ± 7.16 | 11900 | 105.88 ± 16.21 | 6.30 | 4.72 | 0.34 | 0.45 |  |  |  |  |  | Hill Slope (parental HEK cells; HEK Agonist Activity section): 1.95 |
| CC1=NNC(=O)C1CC(=O)N/N=C/c1cccc2ccccc12 (stereo not drawn) [SR-01000080433] | 3.22 | 3.22 | 29.03 ± 7.47 |  | 107.91 ± 12.91 | 4.98 | 4.98 | 0.75 | 0.40 | 242 |  |  |  | > 14100 |  |
| CC(C)Cn1c2c(c(=O)[nH]c1=O)C(NC(=O)CCC1CCCCC1)(C(F)(F)F)C(=O)N2 (stereo not drawn) [SR-01000086488] | 2.44 | 2.40 | 1.08 ± 3.12 | > 14100 | 78.41 ± 20.14 |  |  |  |  |  |  |  |  |  | Efficiency Ligand (GPR139): 0.29; Hill Slope (GPR139): 1.22; Lipophilic Efficiency (logD) (GPR139): 3.95; Lipophilic Efficiency (logP) (GPR139): 3.92; EC50 (GPR139; HEK-GPR139 cells): 430 nM |
| O=C(Cn1cc2c(n1)CCCCC2)NCCCc1ccccc1 [SR-01000088420] | 1.33 | 1.33 | 12.56 ± 5.54 |  | 100.76 ± 18.47 | 3.28 | 3.28 | 1.29 | 0.41 | 156 |  |  |  | > 14100 |  |
| Cc1ccc(CCNC(=O)Cn2cc3c(n2)CCCCC3)cc1 [SR-01000088477] |  |  |  |  | 120.85 ± 28.06 | 4.18 | 4.18 | 0.72 | 0.47 |  | 1.26 | 1.26 | −0.30 ± 8.57 |  | EC50 (parental HEK cells; [3]): > 14100 nM |
| O=C1N2CN(Cc3ccccc3)CN3C(=O)N4CN(Cc5ccccc5)CN1C4C23 (stereo not drawn) [SR-01000090996] | 2.07 | 2.07 | −5.40 ± 6.26 | > 14100 | 117.44 ± 4.30 | 4.52 | 4.52 | 1.21 | 0.34 | 49.3 |  |  |  |  |  |
| CC(C)(C)n1c2c(c(=O)[nH]c1=O)C(NC(=O)CCC1CCCCC1)(C(F)(F)F)C(=O)N2 (stereo not drawn) [SR-01000091502] | 2.63 | 2.59 | −12.00 ± 4.68 |  | 88.58 ± 8.42 | 4.63 | 4.59 | 0.85 | 0.31 | 141 |  |  |  | > 14100 |  |
| Cc1ccccc1CN1CCN(CC(=O)NCCc2ccc(Cl)cc2)C1=O [SR-01000093460] |  |  |  |  | 112.00 ± 16.24 | 6.04 | 6.04 |  | 0.47 |  | 1.85 | 1.85 | 109.44 ± 22.66 |  | Hill Slope (parental HEK cells; HEK Agonist Activity): 15.09; EC50 (parental HEK cells; HEK Agonist Activity, parental non-transfected HEK cells): 11000 nM |
| C=C(CCc1cccc(CC)c1)C(C)C1CCC(Cc2ccccc2C)C1=C (stereo not drawn) [SR-01000095280] |  |  |  |  | 122.65 ± 11.25 | 6.68 | 6.68 |  | 0.41 |  | 2.38 | 2.38 | 25.01 ± 8.12 |  | EC50 (parental HEK cells; [3]): > 14100 nM |
| Cc1cc(NC(=O)Cn2ncc3c2-c2ccccc2OC3)no1 [SR-01000098884] | 3.22 | 3.22 | 0.57 ± 13.32 |  | 75.62 ± 16.43 |  |  |  |  |  |  |  |  | > 14100 | Efficiency Ligand (GPR139): 0.35; Hill Slope (GPR139): 0.72; Lipophilic Efficiency (logD) (GPR139): 4.12; Lipophilic Efficiency (logP) (GPR139): 4.12; EC50 (GPR139; HEK-GPR139 cells): 1800 nM |
| O=C(Cn1ncc2c1-c1ccccc1OC2)Nc1ccc(CCO)cc1 [SR-01000098914] | 2.18 | 2.18 | 11.28 ± 8.03 | > 14100 | 97.42 ± 2.76 |  |  |  |  |  |  |  |  |  | Efficiency Ligand (GPR139): 0.34; Hill Slope (GPR139): 0.93; Lipophilic Efficiency (logD) (GPR139): 3.66; Lipophilic Efficiency (logP) (GPR139): 3.66; EC50 (GPR139; HEK-GPR139 cells): 468 nM |
| CC(C)c1ccc(NC(=O)Cn2ncc3c2-c2ccccc2OC3)cc1 [SR-01000098920] | 1.13 | 1.13 | 10.87 ± 9.19 |  | 139.09 ± 25.80 | 3.02 | 3.02 | 0.40 | 0.36 | 181 |  |  |  | > 14100 |  |
